The values that follow come from the Kinase Knowledgebase extract (Sharma et al. 2016).

Where only a bound is given, the exact number is not on record here.

The target in one assay is MAPK14 (UniProt Q16539). Nature of the assay: Inhibition of MAPK14 Kinase Activity.
The next assay has as its target CDK2 (UniProt P24941). Kind of assay: Enzyme Assay.

Sequence of MAPK14 (Q16539 whole entry, looked up): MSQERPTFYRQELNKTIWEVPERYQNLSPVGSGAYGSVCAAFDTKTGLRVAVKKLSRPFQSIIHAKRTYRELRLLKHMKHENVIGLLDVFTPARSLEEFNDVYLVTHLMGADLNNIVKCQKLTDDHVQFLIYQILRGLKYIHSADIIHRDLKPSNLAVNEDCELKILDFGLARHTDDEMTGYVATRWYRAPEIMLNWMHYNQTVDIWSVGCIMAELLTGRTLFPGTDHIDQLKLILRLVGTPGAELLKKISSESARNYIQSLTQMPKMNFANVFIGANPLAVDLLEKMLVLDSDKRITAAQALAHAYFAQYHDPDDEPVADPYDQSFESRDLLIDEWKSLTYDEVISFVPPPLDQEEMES

Usually IC50 stands for the concentration that inhibits the measured activity by half. A high value points to weaker potency in that assay. As for `O=C1Nc2ncc(Br)cc2C1=Cc1cc(Br)c(O)c(Br)c1`, the IC50 at MAPK14 and on CDK2 was below 1000 nM throughout.
Take `C=Cc1cnc2c(c1)C(=Cc1cc(Br)c(O)c(Br)c1)C(=O)N2`: the IC50 on CDK2 is below 1000 nM.
Same read-out and setting: with `NS(=O)(=O)c1ccc(-c2ccc(C=C3C(=O)Nc4ncc(-c5ccsc5)cc43)o2)cc1` the figure was below 1000 nM.
As for `CCc1cnc2c(c1)C(=Cc1cc(Br)c(O)c(Br)c1)C(=O)N2`, the IC50 against MAPK14 and against CDK2 was below 1000 nM in each case.
At MAPK14, `NC(=O)c1cncc(-c2cnc3c(c2)C(=Cc2cc(Br)c(O)c(Br)c2)C(=O)N3)c1` had a half-maximal inhibitory concentration (IC50) of 1000 to 10000 nM.
Still for that read-out and setting: then `O=C1Nc2nc(Cl)ccc2C1=Cc1cc(Br)c(O)c(Br)c1`, with below 1000 nM; and `COc1ccccc1-c1cc(C=C2C(=O)Nc3ncc(Br)cc32)cc(Br)c1O`, with below 1000 nM.
As for `O=C1Nc2ncc(Br)cc2C1=Cc1cc([N+](=O)[O-])c(O)c([N+](=O)[O-])c1`, on CDK2, the IC50 is below 1000 nM.
